Test results from patent publication CN108947977A, “3r-吲哚甲基-6r-酰胺侧链氨基酸修饰的哌嗪-2,5-二酮，其合成，活性和应用” (Capital Medical University, priority 2017, dated 2018).

Tests used:
Lewis小鼠肺癌细胞(LLC) = test: Anti-metastasis activity: Lewis lung carcinoma (LLC) implanted in C57BL/6 mice, lung metastasis nodules counted; assay type: in vivo, C57BL/6小鼠; details: oral, 0.5μmol/kg/天; for Inhibition of tumour lung metastasis (result in words): 12 days, LLC-bearing C57BL/6 mice; for Anti-metastasis activity compared with RGDS (20μmol/kg/天) and compound 8 (5μmol/kg/天): RGDS dose 40-fold higher, compound 8 dose 10-fold higher
S180 = test: Anti-tumour growth activity in S180 tumour-bearing mice (tumour weight); assay type: in vivo, ICR小鼠; details: oral, 0.5μmol/kg/天; for Inhibition of tumour growth (result in words): 12 days, S180 mice; for Anti-tumour growth activity compared with compound 8 (5μmol/kg/天): compound 8 dose 10-fold higher
二甲苯引起的小鼠耳肿胀 = test: Anti-inflammatory activity: xylene-induced mouse ear swelling; assay type: in vivo, ICR小鼠; details: oral, 0.5μmol/kg; for Inhibition of xylene-induced mouse ear swelling (result in words): xylene 30 min after dosing, ears taken 2 h later; for Anti-inflammatory activity compared with compound 8 (5μmol/kg): compound 8 dose 10-fold higher

## NC(=O)CC[C@H](N)C(=O)NCCCCCC(=O)NCCCC[C@H]1NC(=O)[C@@H](Cc2c[nH]c3ccccc23)NC1=O [化合物6a, (3R,6R)-3-(Gln-氨基正己酰基氨基正丁基)-6-(吲哚-3-甲基)-哌嗪-2,5-二酮]
Lewis小鼠肺癌细胞(LLC)
  Inhibition of tumour lung metastasis (result in words): 有效地抑制肿瘤肺转移
  Anti-metastasis activity compared with RGDS (20μmol/kg/天) and compound 8 (5μmol/kg/天): 没有显著性差异
S180
  Inhibition of tumour growth (result in words): 有效地抑制肿瘤生长
  Anti-tumour growth activity compared with compound 8 (5μmol/kg/天): 没有显著性差异
二甲苯引起的小鼠耳肿胀
  Inhibition of xylene-induced mouse ear swelling (result in words): 有效地抑制二甲苯引起的小鼠耳肿胀
  Anti-inflammatory activity compared with compound 8 (5μmol/kg): 没有显著性差异

## NC(=O)C[C@H](N)C(=O)NCCCCCC(=O)NCCCC[C@H]1NC(=O)[C@@H](Cc2c[nH]c3ccccc23)NC1=O [化合物6b, (3R,6R)-3-(Asn-氨基正己酰基氨基正丁基)-6-(吲哚-3-甲基)-哌嗪-2,5-二酮]
Lewis小鼠肺癌细胞(LLC)
  Inhibition of tumour lung metastasis (result in words): 有效地抑制肿瘤肺转移
  Anti-metastasis activity compared with RGDS (20μmol/kg/天) and compound 8 (5μmol/kg/天): 没有显著性差异
S180
  Inhibition of tumour growth (result in words): 有效地抑制肿瘤生长
  Anti-tumour growth activity compared with compound 8 (5μmol/kg/天): 没有显著性差异
二甲苯引起的小鼠耳肿胀
  Inhibition of xylene-induced mouse ear swelling (result in words): 有效地抑制二甲苯引起的小鼠耳肿胀
  Anti-inflammatory activity compared with compound 8 (5μmol/kg): 没有显著性差异
